The values that follow are results of earlier work, collected in patent US20140127291A1, “EXTENDED RELEASE ACETAMINOPHEN LIQUID PHARMACEUTICAL COMPOSITIONS” (MAYNE PHARMA INTERNATIONAL PTY LTD, priority 2011, published 2014).

SMILES strings stand for the structures.

The conditions of data set [1]: in vivo.

Regarding `CC(=O)Nc1ccc(O)cc1` [acetaminophen], the “saturation concentration in water” value is reported as “about 14 mg/ml”. Moreover, the half life in data set [1] is 1 to 4 h.
